32 compounds from US7420051B2, “Synthetic process for the manufacture of an ecteinaschidin compound” (Pharma Mar, S.A., priority 2000, dated 2008) can be followed below.

What all share (assay type): cell-based
Assay [1] concerns HT-29 (monolayer culture of a human colon carcinoma). Kind of assay: Cytotoxic activity screening, HT-29 cells. The conditions noted are these: Homo sapiens, HT-29, 72 h, three days of incubation, Crystal Violet, approximate IC50. Here is the method: (§1) Cell Cultures. Cells were maintained in logarithmic phase of growth in Eagle's Minimum Essential Medium, with Earle's Balanced Salts, with 2.0 mM L-glutamine, with non-essential amino acids, without sodium bicarbonate (EMEM/neaa); supplemented with 10% Fetal Calf Serum (FCS), 10^−2 M sodium bicarbonate and 0.1 g/l penicillin-G+streptomycin sulfate.
(§2) A simple screening procedure has been carried out to determine and compare the antitumour activity of these compounds, using an adapted form of the method described by Bergeron et al (1984). The tumour cell line employed have been P-388 (suspension culture of a lymphoid neoplasm from DBA/2 mouse), A-549 (monolayer culture of a human lung carcinoma), HT-29 (monolayer culture of a human colon carcinoma) and MEL-28 (monolayer culture of a human melanoma).
(§3) A-549, HT-29 and MEL-28 were seeded into 16 mm wells at 2×10^4 cells per well in 1 ml aliquots of MEM 10FCS containing the indicated concentration of drug. A separate set of cultures without drug was seeded as control growth to ensure that cells remained in exponential phase of growth. All determinations were carried out in duplicate. After three days of incubation at 37° C., 10% CO2 in a 98% humid atmosphere, the wells were stained with 0.1% Crystal Violet. An approximately IC50 was determined by comparing the growth in wells with drug to the growth in wells control.

Assay [2] has as its system A-549 (monolayer culture of a human lung carcinoma). Kind of assay: Cytotoxic activity screening, A-549 cells. The conditions noted are these: Homo sapiens, A549, 72 h, three days of incubation, Crystal Violet, approximate IC50. Here is the method:
as §1, §2, §3

The subject of assay [3] is MEL-28 (monolayer culture of a human melanoma). Kind of assay: Cytotoxic activity screening, MEL-28 cells. The conditions noted are these: SK-MEL-28, 72 h, three days of incubation, Crystal Violet, approximate IC50. Here is the method: as §1, §2, §3
Assay [4] relates to P-388 (suspension culture of a lymphoid neoplasm from DBA/2 mouse). Kind of assay: Cytotoxic activity screening, P-388 cells. Particulars: Mus musculus, P388, 72 h, three days of incubation, approximate IC50. How it is done:
as §1, §2
P-388 cell were seeded into 16 mm wells at 1×10^4 cells per well in 1 ml aliquots of MEM 5FCS containing the indicated concentration of drug. A separate set of cultures without drug was seeded as control growth to ensure that cells remained in exponential phase of growth. All determinations were carried out in duplicate.

A value given as a limit tells only on which side of the number the result lay.

As usually defined, the IC50 is the concentration that gives 50% inhibition. Low values mean higher potency, high ones lower potency. On to `COC1=C(C)C(=O)C2=C(C1=O)[C@H](CNC(=O)[C@H](C)NC(=O)OC(C)(C)C)N1C(C2)[C@H]2c3c(cc(C)c(OC)c3O)C[C@@H]([C@@H]1C#N)N2C` (some centres unmarked), for which the half-inhibitory concentration (IC50) in assay [1] is 0.15 µM; in assay [2], over 0.15 µM; in assay [3], over 0.15 µM; in assay [4] it was 0.15 µM.

Take `COCOc1c(OC)c(C)cc2c1[C@@H]1C3Cc4c(O)c(C)c5c(c4[C@H](CNC(=O)[C@H](C)NC(=O)OC(C)(C)C)N3[C@@H](C#N)[C@H](C2)N1C)OCO5` (some centres unmarked): the IC50 in assay [1], in assay [2], in assay [3] and in assay [4] was 1.4 µM throughout.

Regarding `C=CCOc1c(C)c2c(c3c1CC1[C@H]4c5c(cc(C)c(OC)c5OCOC)C[C@@H]([C@H](C#N)N1[C@H]3CNC(=O)[C@H](C)NC(=O)OC(C)(C)C)N4C)OCO2` (some centres unmarked), the IC50 in assay [1], in assay [2], in assay [3] and in assay [4] was 0.01 µM in each case.

Turning to `C=CCOc1c(C)c2c(c3c1CC1[C@H]4c5c(cc(C)c(OC)c5O)C[C@@H]([C@H](C#N)N1[C@H]3CNC(=O)[C@H](C)N)N4C)OCO2` (some centres unmarked), the half-inhibitory concentration (IC50) amounted to 0.01 µM in assay [1], 0.16 µM in assay [2], 0.16 µM in assay [3] and 0.08 µM in assay [4].

Turning to `C=CCOc1c(C)c2c(c3c1CC1[C@H]4c5c(cc(C)c(OC)c5O)C[C@@H]([C@H](C#N)N1[C@H]3CNC(=O)[C@H](C)NC(=S)Nc1ccccc1)N4C)OCO2` (some centres unmarked), the IC50 in assay [1], in assay [2], in assay [3] and in assay [4] was 0.01 µM in each case.

On to `C=CCOc1c(C)c2c(c3c1CC1[C@H]4c5c(cc(C)c(OC)c5O)C[C@@H]([C@H](C#N)N1[C@H]3CN)N4C)OCO2` (some centres unmarked), for which the IC50 in assay [1], in assay [2], in assay [3] and in assay [4] was 0.019 µM in each case.

In the case of `COc1c(C)cc2c(c1O)[C@@H]1C3[C@@H]4SCC(N)C(=O)OC[C@@H](c5c6c(c(C)c(OC(C)=O)c54)OCO6)N3[C@@H](C#N)[C@H](C2)N1C` (some centres unmarked), the IC50 in assay [1], in assay [2], in assay [3] and in assay [4] was 0.008 µM throughout.

For the compound `COc1c(C)cc2c(c1O)[C@@H]1C3[C@@H]4SCC(=O)C(=O)OC[C@@H](c5c6c(c(C)c(OC(C)=O)c54)OCO6)N3[C@@H](C#N)[C@H](C2)N1C` (some centres unmarked), the IC50 in assay [1], in assay [2], in assay [3] and in assay [4] was 0.01 µM in each case.

For `COC1=C(C)C(=O)C2=C(C1=O)C(CNC(C)=O)N1C(C2)[C@H]2c3c(cc(C)c(OC)c3O)C[C@@H]([C@@H]1C#N)N2C` (some centres unmarked), the IC50 in assay [1], in assay [2], in assay [3] and in assay [4] was 0.005 µM in each case.

As for `COc1c(C)cc2c(c1O)[C@@H]1C3Cc4c(OC(C)=O)c(C)c5c(c4[C@H](CNC(=O)/C=C/c4cccc(C(F)(F)F)c4)N3[C@@H](C#N)[C@H](C2)N1C)OCO5` (some centres unmarked), the IC50 in assay [2], in assay [3] and in assay [4] was 0.0001 µM in each case.

Consider `C=CCOc1c(C)c2c(c3c1CC1[C@H]4c5c(cc(C)c(OC)c5OCOC)C[C@@H]([C@H](C#N)N1[C@H]3COC(CSCC1c3ccccc3-c3ccccc31)NC(=O)OC(C)(C)C)N4C)OCO2` (some centres unmarked), for which the IC50 in assay [1] and in assay [2] was over 1 µM each time.

As for `COCOc1c(OC)c(C)cc2c1[C@@H]1C3CC4(O)C(=O)C(C)=C5OCOC5=C4[C@H](COC(CSCC4c5ccccc5-c5ccccc54)NC(=O)OC(C)(C)C)N3[C@@H](C#N)[C@H](C2)N1C` (some centres unmarked), the IC50 in assay [1] and in assay [2] was over 1 µM each time.

On to `C=CCOc1c(C)c2c(c3c1CC1[C@H]4c5c(cc(C)c(OC)c5O)C[C@@H]([C@H](C#N)N1[C@H]3CO)N4C)OCO2` (some centres unmarked), for which the IC50 in assay [1], in assay [2], in assay [3] and in assay [4] was 0.19 µM throughout.

For `C=CCOc1c(C)c2c(c3c1CC1[C@H]4c5c(cc(C)c(OC)c5O)C[C@@H]([C@H](C#N)N1[C@H]3COC(CSCC1c3ccccc3-c3ccccc31)NC(=O)OC(C)(C)C)N4C)OCO2` (some centres unmarked), the IC50 in assay [1] and in assay [2] was 0.0055 µM each time.

As for `C=CCOc1c(C)c2c(c3c1CC1[C@H]4c5c(cc(C)c(OC)c5OCOCCOC)C[C@@H]([C@H](C#N)N1[C@H]3COC(CSCC1c3ccccc3-c3ccccc31)NC(=O)OC(C)(C)C)N4C)OCO2` (some centres unmarked), the 50% inhibitory concentration (IC50) in assay [1] and in assay [2] was over 1 µM in each case.

As to `COCCOCOc1c(OC)c(C)cc2c1[C@@H]1C3Cc4c(O)c(C)c5c(c4[C@H](COC(CSCC4c6ccccc6-c6ccccc64)NC(=O)OC(C)(C)C)N3[C@@H](C#N)[C@H](C2)N1C)OCO5` (some centres unmarked), the half-maximal inhibitory concentration (IC50) in assay [1] and in assay [2] was 0.01 µM in each case.

Take `COCCOCOc1c(OC)c(C)cc2c1[C@@H]1C3CC4(O)C(=O)C(C)=C5OCOC5=C4[C@H](COC(CSCC4c5ccccc5-c5ccccc54)NC(=O)OC(C)(C)C)N3[C@@H](C#N)[C@H](C2)N1C` (some centres unmarked): the IC50 in assay [1] and in assay [2] was 0.051 µM throughout.

The compound `COCCOCOc1c(OC)c(C)cc2c1[C@@H]1C3[C@@H]4SC[C@@H](NC(=O)OC(C)(C)C)C(=O)OC[C@@H](c5c6c(c(C)c(OC(C)=O)c54)OCO6)N3[C@@H](C#N)[C@H](C2)N1C` (some centres unmarked) showed an IC50 in assay [2] of 0.012 µM.

In the case of `C=CCOc1c(C)c2c(c3c1CC1[C@H]4c5c(cc(C)c(OC)c5O)C[C@@H]([C@H](C#N)N1[C@H]3COC(CSCC1c3ccccc3-c3ccccc31)NC(=O)OCc1ccccc1)N4C)OCO2` (some centres unmarked), the IC50 in assay [1] and in assay [2] was 0.11 µM in each case.

For the compound `C=CCOc1c(C)c2c(c3c1CC1[C@H]4c5c(cc(C)c(OC)c5OCOCCOC)C[C@@H]([C@H](C#N)N1[C@H]3COC(CSCC1c3ccccc3-c3ccccc31)NC(=O)OCc1ccccc1)N4C)OCO2` (some centres unmarked), the IC50 in assay [1] and in assay [2] was over 1 µM in each case.

Regarding `COCCOCOc1c(OC)c(C)cc2c1[C@@H]1C3CC4(O)C(=O)C(C)=C5OCOC5=C4[C@H](COC(CSCC4c5ccccc5-c5ccccc54)NC(=O)OCc4ccccc4)N3[C@@H](C#N)[C@H](C2)N1C` (some centres unmarked), the IC50 in assay [1] and in assay [2] was over 1 µM each time.

As to `COCCOCOc1c(OC)c(C)cc2c1[C@@H]1C3[C@@H]4SC[C@H](NC(=O)OCc5ccccc5)C(=O)OC[C@@H](c5c6c(c(C)c(OC(C)=O)c54)OCO6)N3[C@@H](C#N)[C@H](C2)N1C` (some centres unmarked), the IC50 in assay [1] and in assay [2] was 0.59 µM each time.

As for `COc1c(C)cc2c(c1O)[C@@H]1C3[C@@H]4SC[C@H](NC(=O)OCc5ccccc5)C(=O)OC[C@@H](c5c6c(c(C)c(OC(C)=O)c54)OCO6)N3[C@@H](C#N)[C@H](C2)N1C` (some centres unmarked), the IC50 in assay [1] and in assay [2] was 0.0013 µM in each case.

In the case of `C=CCOC(=O)N[C@@H]1CS[C@@H]2c3c(OC(C)=O)c(C)c4c(c3[C@H](COC1=O)N1C2[C@H]2c3c(cc(C)c(OC)c3O)C[C@@H]([C@@H]1C#N)N2C)OCO4` (some centres unmarked), the IC50 in assay [2] amounted to 0.00015 µM.

For `C=CCOc1c(C)c2c(c3c1CC1[C@H]4c5c(cc(C)c(OC)c5O)C[C@@H]([C@H](C#N)N1[C@H]3CO[Si](C)(C)C(C)(C)C)N4C)OCO2` (some centres unmarked), the IC50 in assay [1] and in assay [2] was over 1 µM throughout.

On to `C=CCOc1c(C)c2c(c3c1CC1[C@H]4c5c(cc(C)c(OC)c5OCOCCOC)C[C@@H]([C@H](C#N)N1[C@H]3CO[Si](C)(C)C(C)(C)C)N4C)OCO2` (some centres unmarked), for which the IC50 in assay [1] and in assay [2] was over 1 µM in each case.

`COCCOCOc1c(OC)c(C)cc2c1[C@@H]1C3Cc4c(O)c(C)c5c(c4[C@H](CO[Si](C)(C)C(C)(C)C)N3[C@@H](C#N)[C@H](C2)N1C)OCO5` (some centres unmarked): the IC50 in assay [1] and in assay [2] was over 1 µM in each case.

For the compound `COCCOCOc1c(OC)c(C)cc2c1[C@@H]1C3CC4(O)C(=O)C(C)=C5OCOC5=C4[C@H](CO[Si](C)(C)C(C)(C)C)N3[C@@H](C#N)[C@H](C2)N1C` (some centres unmarked), the IC50 in assay [1] and in assay [2] was over 1 µM throughout.

As for `COCCOCOc1c(OC)c(C)cc2c1[C@@H]1C3CC4(O)C(=O)C(C)=C5OCOC5=C4[C@H](CO)N3[C@@H](C#N)[C@H](C2)N1C` (some centres unmarked), the half-maximal inhibitory concentration (IC50) in assay [1] and in assay [2] was over 1 µM each time.

As to `C=CCOC(=O)NC(CSCC1c2ccccc2-c2ccccc21)OC[C@H]1C2=C3OCOC3=C(C)C(=O)C2(O)CC2[C@H]3c4c(cc(C)c(OC)c4OCOCCOC)C[C@@H]([C@H](C#N)N21)N3C` (some centres unmarked), the half-inhibitory concentration (IC50) in assay [1] and in assay [2] was over 1 µM throughout.

As to `C=CCOC(=O)N[C@@H]1CS[C@@H]2c3c(OC(C)=O)c(C)c4c(c3[C@H](COC1=O)N1C2[C@H]2c3c(cc(C)c(OC)c3OCOCCOC)C[C@@H]([C@@H]1C#N)N2C)OCO4` (some centres unmarked), the concentration for half-maximal inhibition (IC50) in assay [1] and in assay [2] was 0.012 µM throughout.

`COCCOc1c(OC)c(C)cc2c1[C@@H]1C3[C@@H]4SC[C@H](NC(=O)OCc5ccccc5)C(=O)OC[C@@H](c5c6c(c(C)c(OC(C)=O)c54)OCO6)N3[C@@H](C#N)[C@H](C2)N1C` (some centres unmarked): the IC50 in assay [1] and in assay [2] was 0.062 µM throughout.
